Measurements reported in patent publication US20260070924A1, “INDAZOLE MACROCYCLES AND THEIR USE” (BLOSSOMHILL THERAPEUTICS, INC., priority 2022, published 2026).

Assays:
FLT3-ITD = FLT3-ITD (Homo sapiens, UniProt P36888); test: HotSpot radiometric kinase assay (Reaction Biology); type: biochemical
Protocol: Briefly, specific kinase/substrate pairs along with required cofactors were prepared in reaction buffer; 20 mM Hepes pH 7.5, 10 mM MgCl2, 1 mM EGTA, 0.02% Brij35, 0.02 mg/ml BSA, 0.1 mM Na3VO4, 2 mM DTT, 1% DMSO. Compounds were delivered into the reaction, followed ˜20 minutes later by addition of a mixture of ATP (Sigma, St. Louis MO) and ^33P ATP (Perkin Elmer, Waltham MA) to a final concentration of 10 M. Reactions were carried out at room temperature for 120 min, followed by spotting of the reactions onto P81 ion exchange filter paper (Whatman Inc., Piscataway, NJ). Unbound phosphate was removed by extensive washing of filters in 0.75% phosphoric acid. […] IC50 values and curve fits were obtained using Prism (GraphPad Software).

MV-4-11 cells = test: MV-4-11 cell proliferation assay (CellTiter-Glo 2.0); type: cell-based; conditions: MV-4-11, 384-well, 11-dose dilution series; read-out: IC50, inhibition of MV-4-11 cell proliferation
Protocol: MV-4-11 cell line was purchased from ATCC and maintained in RPMI medium supplemented with 10% fetal bovine serum and 100 U/mL of penicillin/streptomycin. One thousand MV-4-11 cells/50 μl per well were seeded in white 384-well plate, followed by treatment with indicated compounds in a 11-dose dilution series. Cell proliferation was measured using CellTiter-Glo 2.0 luciferase-based ATP detection assay (Promega, Madison, WI) following the manufacturer's protocol. Plates were then read on a TECAN Sparks multimode microplate reader. Data was analyzed using GraphPad Prism 9 (GraphPad Software, San Diego, CA) to obtain IC50 values.

phospho-FLT3 (Y589/Y591) = phospho-FLT3 (Y589/Y591) (Homo sapiens, UniProt P36888, INS600FREYEYD); test: Inhibition of kinase phosphorylation by Western Blot in MOLM-13; type: cell-based; conditions: MOLM-13 cells, 4 hour-incubation; read-out: pFLT3 MOLM-13 IC50
Sequence of phospho-FLT3 (Y589/Y591) (P36888 with tags, fused parts or gaps INS600FREYEYD limits assumed): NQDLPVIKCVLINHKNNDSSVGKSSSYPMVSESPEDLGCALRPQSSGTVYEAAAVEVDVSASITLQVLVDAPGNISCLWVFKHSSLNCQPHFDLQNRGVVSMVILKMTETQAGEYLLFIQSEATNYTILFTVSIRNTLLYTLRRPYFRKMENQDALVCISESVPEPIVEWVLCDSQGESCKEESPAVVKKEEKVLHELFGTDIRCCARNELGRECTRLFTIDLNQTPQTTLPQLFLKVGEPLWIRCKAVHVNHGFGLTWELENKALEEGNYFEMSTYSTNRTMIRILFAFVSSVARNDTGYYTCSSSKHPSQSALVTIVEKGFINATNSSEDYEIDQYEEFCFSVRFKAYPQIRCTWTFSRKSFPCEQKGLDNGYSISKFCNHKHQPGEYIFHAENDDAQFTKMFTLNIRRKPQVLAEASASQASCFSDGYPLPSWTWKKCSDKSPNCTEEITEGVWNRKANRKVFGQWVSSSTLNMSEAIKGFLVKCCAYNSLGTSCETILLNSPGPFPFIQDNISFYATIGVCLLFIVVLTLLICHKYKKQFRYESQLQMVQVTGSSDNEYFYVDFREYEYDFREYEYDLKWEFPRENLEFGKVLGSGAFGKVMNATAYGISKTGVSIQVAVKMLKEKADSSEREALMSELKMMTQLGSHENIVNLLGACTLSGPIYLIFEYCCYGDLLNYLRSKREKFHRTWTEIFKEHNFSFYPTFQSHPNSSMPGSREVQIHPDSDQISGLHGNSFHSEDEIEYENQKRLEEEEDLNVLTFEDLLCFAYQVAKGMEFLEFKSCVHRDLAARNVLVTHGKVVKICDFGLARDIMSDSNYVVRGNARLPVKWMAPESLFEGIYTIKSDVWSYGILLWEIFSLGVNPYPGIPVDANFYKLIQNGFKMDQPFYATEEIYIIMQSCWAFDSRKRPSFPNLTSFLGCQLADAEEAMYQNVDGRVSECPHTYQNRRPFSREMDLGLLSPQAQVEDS

[1] = tested on: S6K (PRS6KB1) exon6-8/exon 6-7; test: Alternative splicing ratio by qPCR in MOLM-13; type: cell-based; conditions: DMSO = 1.02
Protocol: (§1) Alternative splicing ratio of RNA transcripts was measured by qPCR in MV-4-11 and MOLM-13 cell lines. Cells were plated in 24 well plates at 1 million cells per well and then treated with compounds at different concentrations, with DMSO only as control. After 8-hour-incubation, cells were harvested and washed once with ice-cold PBS, and lysed in RNA lysis buffer (Invitrogen). Total RNA was extracted using the RNA Purification Kit (Invitrogen). 2 μg of RNA was used for cDNA synthesis using cDNA synthesis kit (ThermoFisher) and 20 ng of cDNA was used for qPCR using PROFLEX 96-Well PCR System (ThermoFisher).

BCLxS/xL = test: Alternative splicing ratio by qPCR in MOLM-13; type: cell-based; conditions: DMSO = 1.00
Protocol: as §1
• BCLxS/xL (SYBR Green, IDT)

Sequence of FLT3-ITD (P36888 whole entry, looked up, change not shown): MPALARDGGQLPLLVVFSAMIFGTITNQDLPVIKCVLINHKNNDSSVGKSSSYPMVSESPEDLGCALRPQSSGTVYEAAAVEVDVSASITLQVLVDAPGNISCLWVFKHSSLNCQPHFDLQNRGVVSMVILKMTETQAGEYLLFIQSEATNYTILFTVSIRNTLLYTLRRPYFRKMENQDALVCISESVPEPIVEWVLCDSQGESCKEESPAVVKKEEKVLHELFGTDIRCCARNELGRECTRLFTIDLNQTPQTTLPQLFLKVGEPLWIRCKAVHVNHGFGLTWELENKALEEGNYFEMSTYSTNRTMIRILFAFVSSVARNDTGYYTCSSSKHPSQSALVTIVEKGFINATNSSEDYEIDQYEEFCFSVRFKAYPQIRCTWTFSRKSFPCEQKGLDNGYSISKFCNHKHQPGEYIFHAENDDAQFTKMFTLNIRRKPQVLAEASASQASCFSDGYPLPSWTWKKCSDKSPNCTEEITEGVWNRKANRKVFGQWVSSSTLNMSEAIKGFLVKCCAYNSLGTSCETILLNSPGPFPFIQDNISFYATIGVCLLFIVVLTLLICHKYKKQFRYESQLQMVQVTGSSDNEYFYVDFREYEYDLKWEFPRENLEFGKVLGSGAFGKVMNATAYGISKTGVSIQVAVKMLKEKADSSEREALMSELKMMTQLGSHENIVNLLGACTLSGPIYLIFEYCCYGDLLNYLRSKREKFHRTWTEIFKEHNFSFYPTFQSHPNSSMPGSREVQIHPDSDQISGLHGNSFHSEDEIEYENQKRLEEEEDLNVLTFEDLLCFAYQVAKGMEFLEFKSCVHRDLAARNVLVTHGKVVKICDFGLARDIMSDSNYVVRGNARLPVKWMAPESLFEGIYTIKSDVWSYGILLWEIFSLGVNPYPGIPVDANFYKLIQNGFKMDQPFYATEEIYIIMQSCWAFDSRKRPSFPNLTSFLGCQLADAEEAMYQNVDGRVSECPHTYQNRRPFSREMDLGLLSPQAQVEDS

CCc1nn(C)c2c1/C=C/c1n[nH]c3ccc(cc13)-c1cnn(C)c1OCCN(C)C2=O [Ex. 6, (17E)-16-ethyl-8,12,14-trimethyl-2,11,12,14-tetrahydro-8H-3,5-ethenotripyrazolo[3,4-f:3′,4′-j:4″,3″-n][1,4]oxazacyclopentadecin-13(10H)-one]
IC50 (FLT3-ITD): 348 pM
IC50 (MV-4-11 cells): 300 pM
IC50 (phospho-FLT3 (Y589/Y591)): 320 pM
Alternative Splicing Ratio S6K Ex. 6-8/Ex. 6-7 ([1]; MOLM-13, 30 nM): 1.60
Alternative Splicing Ratio S6K Ex. 6-8/Ex. 6-7 ([1]; MOLM-13, 100 nM): 2.71
Alternative Splicing Ratio S6K Ex. 6-8/Ex. 6-7 ([1]; MOLM-13, 300 nM): 8.08
Alternative Splicing Ratio BCL-xS/xL (BCLxS/xL; MOLM-13, 30 nM): 1.51
Alternative Splicing Ratio BCL-xS/xL (BCLxS/xL; MOLM-13, 100 nM): 3.54
Alternative Splicing Ratio BCL-xS/xL (BCLxS/xL; MOLM-13, 300 nM): 4.20
